The numbers were not newly measured in US20080027034A1, “Ciclesonide and Syk Inhibitor Combination and Method of Use Thereof” (priority 2004, published 2008), which cites them from elsewhere.

For data set [1] the following is noted: compared with budesonide.
Assay in data set [2]: not given
The source holds these as a separate data set.

Each structure is given as a SMILES string.

As for `CC(C)C(=O)OCC(=O)[C@@]12O[C@H](C3CCCCC3)O[C@@H]1C[C@H]1[C@@H]3CCC4=CC(=O)C=C[C@]4(C)[C@H]3[C@@H](O)C[C@@]12C` [Ciclesonide, [11β,16α(R)]-16,17-[(Cyclohexylmethylen)bis(oxy)]-11-hydroxy-21-(2-methyl-1-oxoprop-oxy)pregna-1,4-dien-3,20-dione], the “systemic activity relative to budesonide” value (compared with budesonide) is reported as “three times lower”. Further, the systemic activity entry (in vivo) is “low”. Also, the “anti-inflammatory activity relative to budesonide” value in data set [1] is on record as “higher”. For the same molecule, in data set [2] (liver oxidases), the “metabolism by liver oxidases” value is reported as “very high”. For the same molecule, the “concentration of the drug in the lungs” value in data set [2] (lungs) was “high”. The “absorption after oral administration” value in data set [2] (oral administration) was “only moderately absorbed”. In data set [2] (plasma), the plasma half-life result was “low”.
